Test results published in patent publication US4769389A, “Oxygenated-alkyl derivatives of glutamic and aspartic acids with antagonistic activity to bio-active polypeptides and a method for their preparation” (priority 1985, dated 1988).
≈ marks a conversion by molar mass, not a printed value. Where two headings read alike, the source gives them in different places.

Legend:
guinea pig gall bladders = test: Anti-CCK-8 activity on guinea-pig gallbladders in situ (in vivo); conditions: Cavia porcellus, iv; CCK-8 10 ng/kg i.v.; compound i.v.; read-out: ID50, anti-CCK-8 activity in situ
Experimental: In order to confirm the evidence of the studies in vitro, several of the more interesting compounds were tested in vivo with the use of guinea-pig gallbladders in situ.
The method used was that described by Ljungberg (Svensk. Farm. Tidskr. 69, 351-354, 1964).
Guinea-pigs having a weight of about 400 g anaesthetised with urethane were used; the substances being tested were administered intravenously (i.v.) into the jugular vein.
The responses of the gallbladder to the substances being tested were detected by means of a force transducer and recorded by means of a microdynamometer. 10 ng/kg of CCK 8 were chosen as the optimum contracting dose. The antagonistic compounds tested were administered in increasing doses so as to enable the calculation of an ID50 value, that is the dose (in mg/kg i.v.) having a 50% inhibiting effect against contractions induced by 10 ng/kg i.v. of CCK-8.

guinea-pig gallbladder = test: Anti-CCK activity on guinea-pig gallbladders in vitro (contraction by CCK-8); conditions: for IC50: Cavia porcellus, CCK-8 10 ng/ml, in vitro
Experimental: ANTI-CCK ACTIVITY ON GUINEA-PIG GALLBLADDERS IN VITRO A longitudinal strip of guinea-pig gallbladder is placed in a bath for isolated organs in Krebs at a temperature of 32° C. and oxygenated continuously with an oxygen-CO2 mixture (95-[…]). The isometric contractions were detected by means of a force transducer and recorded. […] The results obtained are shown in Table 3 which gives the compounds tested and the IC50 values found which were calculated by the method of regression in a test of at least three experiments for each compound studied.

in vivo = conditions: mouse, iv
digestive tract = test: Antispastic activity, vegetable carbon test (speed of transit through stomach and intestine) in mice; assay type: in vivo; conditions: Mus musculus, ip, read-out: A[…] ED50 (dose which reduces the intestinal transit time of the carbon by 50%), intraperitoneally
Description: The anti-spastic activity which the present compounds exert on the whole of the digestive tract is also considerable. Measured in mice with the vegetable carbon test (speed of transit through the stomach and intestine) this activity is illustrated in the following table: […]

[1] = system: pancreatitis in mice induced experimentally by cerulein; test: Pancreatitis induced by cerulein in mice; assay type: in vivo; conditions: for ED50: Mus musculus, ip, cerulein, mice
Experimental: Adult male mice received six injections of cerulein (Takus) (50 mcg/kg) each hour for six hours.
The compound was administered 30 minutes before each administration of cerulein. Nine hours after the beginning of the treatment, the blood was taken from the rectro-orbitory plexus after anaesthesia with ether, the animals were killed and the pancreas removed and weighed.

colon of rabbits = test: Antispastic activity in the colon of rabbits stimulated with CCK-8; assay type: in vivo, rabbit; set-up: Antispastic activity in colon, EXPERIMENT 1 / Antispastic activity in colon, EXPERIMENT 2: unit not given here; conditions: CCK 100 ng/kg
Experimental: The abdomen of anaesthetised rabbit is cut open to display the tranverse colon. A small balloon full of water is inserted at an established point and connected to a pressure transducer by means of a polyethylene cannula filled with H2 O.
The optimum sensitivity being fixed in relation to the physiological contractions, the products were administered through the femeral vein. Contractions were induced by the administration of 100 ng/kg of CCK.

[2] = system: pancreatitis in rats induced experimentally by taurocholate; test: Pancreatitis induced by sodium taurocolate in rats; assay type: in vivo; conditions: for ED50: Rattus norvegicus, ip, taurocholate, rats
Experimental: The products under examination were administered intraperitoneally (i.p.) 30 minutes before the operation and 3 hours after the operation. Six hours after the laparatomy the blood was removed from the retro-orbitory plexus after anaesthesia with ether, the animals were killed and the pancreas was removed and weighed. The activity of the serum amylase was determined by the method described above.

`CCCCCN(CCOCC)C(=O)C(CCC(=O)O)NC(=O)c1ccc(Cl)cc1` (stereo not shown) [Compound 12] gave an ED50 (guinea pig gall bladders) of 4.44 mg/kg and an IC50 (guinea-pig gallbladder) of 2.9 mg/L (≈ 6.79 µM).

Work on `CCCCCN(CCCOC)C(=O)C(CCC(=O)O)NC(=O)c1cccc(Cl)c1` (stereo not shown) [Compound 13] yielded an ED50 (guinea pig gall bladders) of 6.7 mg/kg and an IC50 (guinea-pig gallbladder) of 8.9 mg/L (≈ 20.8 µM).

`CCCCCN(CCCOC)C(=O)C(CCC(=O)O)NC(=O)c1ccc(F)c(F)c1` (stereo not shown) [Compound 14] showed an ED50 (guinea pig gall bladders) of 1.1 mg/kg, an LD50 (in vivo) of 425 mg/kg and a selectivity ratio (in vivo) of 386. The IC50 (guinea-pig gallbladder) was 0.8 mg/L (≈ 1.87 µM).

Work on `COCCCN(CCCC(C)C)C(=O)C(CCC(=O)O)NC(=O)c1ccc(Cl)c(Cl)c1` (stereo not shown) [Compound 15] yielded an ED50 (guinea pig gall bladders) of 0.84 mg/kg, an ED50 (digestive tract) of 44.2 mg/kg and an LD50 (in vivo) of 288 mg/kg. The selectivity ratio (in vivo) was 343 and the IC50 (guinea-pig gallbladder) was 0.7 mg/L (≈ 1.47 µM).

`CCCCN(CCCOC)C(=O)C(CCC(=O)O)NC(=O)c1ccc(Cl)c(Cl)c1` (stereo not shown) [Compound 16] gave an ED50 (guinea pig gall bladders) of 2.08 mg/kg and an IC50 (guinea-pig gallbladder) of 1.5 mg/L (≈ 3.35 µM).

For `CCCCCCN(CCCOC)C(=O)C(CCC(=O)O)NC(=O)c1ccc(Cl)c(Cl)c1` (stereo not shown) [Compound 17], the ED50 (guinea pig gall bladders) was 3.25 mg/kg and the IC50 (guinea-pig gallbladder) was 1.6 mg/L (≈ 3.37 µM).

`COCCCN(CCCC(C)(C)C)C(=O)C(CCC(=O)O)NC(=O)c1ccc(Cl)c(Cl)c1` (stereo not shown) [Compound 18] showed an ED50 (guinea pig gall bladders) of 6.79 mg/kg and an IC50 (guinea-pig gallbladder) of 4.8 mg/L (≈ 9.81 µM).

Molecule `COCCCN(CCC(C)C)C(=O)C(CCC(=O)O)NC(=O)c1ccc(Cl)c(Cl)c1` (stereo not shown) [Compound 19] has an ED50 (guinea pig gall bladders) of 0.74 mg/kg, an ED50 (digestive tract) of 18.5 mg/kg and an LD50 (in vivo) of 297 mg/kg. The selectivity ratio (in vivo) was 401 and the IC50 (guinea-pig gallbladder) was 0.6 mg/L (≈ 1.3 µM).

Work on `CCCCCN(CCCOC)C(=O)C(CC(=O)O)NC(=O)c1ccc(Cl)c(Cl)c1` (stereo not shown) [Compound 20] yielded an ED50 (guinea pig gall bladders) of 0.84 mg/kg, an ED50 (digestive tract) of 27.9 mg/kg and an LD50 (in vivo) of 362 mg/kg. The selectivity ratio (in vivo) was 431 and the IC50 (guinea-pig gallbladder) was 0.9 mg/L (≈ 2.01 µM).

Work on `CCCCCN(CCCOC)C(=O)C(CC(=O)O)NC(=O)c1ccc(C)c(C)c1` (stereo not shown) [Compound 21] yielded an ED50 (guinea pig gall bladders) of 3.69 mg/kg and an IC50 (guinea-pig gallbladder) of 4.7 mg/L (≈ 11.6 µM).

In the case of `CCCN(CCC)C(=O)C(CCC(=O)O)NC(=O)c1ccccc1` (stereo not shown) [Proglumide, reference compound], the “AMYLASE IN THE SERUM” value ([1]; 200 mg/kg ip + cerulein) is reported as 48.2 U/ml, the “INHIBITION OF WEIGHT INCREASE” value ([1]; 200 mg/kg ip + cerulein) is reported as 53.4% and the “INHIBITION OF WEIGHT INCREASE (pancreas)” value ([1]; 200 mg/kg ip + cerulein) is reported as 38.1%. The “RATIO WEIGHT OF PANCREAS / ANIMAL WEIGHT” value ([1]; 200 mg/kg ip + cerulein) was 0.47%, the “AMYLASE IN THE SERUM” value ([1]; 400 mg/kg ip + cerulein) was 26.2 U/ml and the “INHIBITION OF WEIGHT INCREASE” value ([1]; 400 mg/kg ip + cerulein) was 80.9%. For the same molecule, the “INHIBITION OF WEIGHT INCREASE (pancreas)” value ([1]; 400 mg/kg ip + cerulein) was 85.7%, the “RATIO WEIGHT OF PANCREAS / ANIMAL WEIGHT” value ([1]; 400 mg/kg ip + cerulein) was 0.37% and the ED50 ([1]; read-out: ED50 (inhibition of weight increase)) was 226 mg/kg. For the same molecule, the ED50 ([1]; read-out: ED50, inhibition of weight increase of the pancreas) was 241 mg/kg, the “activity of proglumide in cerulein pancreatitis” value ([1]; in words) was “also active but at considerably higher doses” and the ED50 (guinea pig gall bladders) was 70.5 mg/kg. The LD50 (in vivo) was 2400 mg/kg, the selectivity ratio (in vivo) was 34 and the “Antispastic activity in colon, EXPERIMENT 1” value (colon of rabbits; 25 mg/kg i.v.) was -33.7. For the same molecule, the “Antispastic activity in colon, EXPERIMENT 2” value (colon of rabbits; 25 mg/kg i.v.) was 0, the “Antispastic activity in colon, EXPERIMENT 1” value (colon of rabbits; 50 mg/kg i.v.) was -38.1 and the “Antispastic activity in colon, EXPERIMENT 2” value (colon of rabbits; 50 mg/kg i.v.) was -16.1. The “Antispastic activity in colon, EXPERIMENT 1” value (colon of rabbits; 100 mg/kg i.v.) was -64.4, the “Antispastic activity in colon, EXPERIMENT 2” value (colon of rabbits; 100 mg/kg i.v.) was -43.1 and the ED50 (colon of rabbits; Oryctolagus cuniculus, iv) was 92.6 mg/kg. For the same molecule, the “AMYLASE IN THE SERUM” value ([2]; 200 mg/kg i.p. + taurocholate) was 14.5 U/ml, the “INHIBITION OF AMYLASE INCREASE” value ([2]; 200 mg/kg i.p. + taurocholate) was 45.5% and the “INHIBITION OF WEIGHT INCREASE” value ([2]; 200 mg/kg i.p. + taurocholate) was 21.4%. For the same molecule, the “RATIO WEIGHT OF PANCREAS / ANIMAL WEIGHT” value ([2]; 200 mg/kg i.p. + taurocholate) was 0.49%, the “AMYLASE IN THE SERUM” value ([2]; 400 mg/kg i.p. + taurocholate) was 9.1 U/ml and the “INHIBITION OF AMYLASE INCREASE” value ([2]; 400 mg/kg i.p. + taurocholate) was 89.4%. The “INHIBITION OF WEIGHT INCREASE” value ([2]; 400 mg/kg i.p. + taurocholate) was 42.8%, the “RATIO WEIGHT OF PANCREAS / ANIMAL WEIGHT” value ([2]; 400 mg/kg i.p. + taurocholate) was 0.46% and the ED50 ([2]; read-out: ED50, inhibition of amylase increase) was 222 mg/kg. For the same molecule, the ED50 ([2]; read-out: ED50, inhibition of weight increase) was 467 mg/kg, the IC50 (guinea-pig gallbladder) was 340 mg/L (≈ 1020 µM) and the “activity less than that of the most active compound in the invention” value (guinea-pig gallbladder; in vitro gallbladder) was “about 3000 times less”.
